Measurements from PMC8115619, “Generation of a chemical genetic model for JAK3” (Scientific Reports, 2021).

Experiments:
MEKK1 = MEKK1 (Homo sapiens, UniProt Q13233); experiment: Selectivity screen MEKK1; type: biochemical; details: 1 µM inhibitor, mean
Description: (§1) For the in vitro kinase assay, JAK3 (5–20 mU diluted in 50 mM Tris pH 7.5, 0.1 mM EGTA, 0.05% β-mercaptoethanol, 1 mg/ml BSA) was assayed against PDKtide ([…]) in a final volume of 25.5 µl containing 50 mM Tris pH 7.5, 0.1 mM EGTA, 0.05% β-mercaptoethanol, 100 µM substrate peptide, 10 mM magnesium acetate and 0.02 mM [33P-γ-ATP] (50–1000 cpm/pmole) and incubated for 30 min at room temperature. Assays were started by the addition of the ATP and stopped by addition of 5 µl of 0.5 M (3%) orthophosphoric acid and then harvested onto P81 Unifilter plates with a wash buffer of 50 mM orthophosphoric acid. To determine the Km for ATP, assays were run using 1, 5, 10, 20, 50, 100, 200, 400, 500 μM ATP and Km derived by non-linear regression fitting to the Michaelis–Menten equation v = Vmax[S]/(Km + [S]). IC50 values for inhibitors via non-linear regression using a parameter model: Y = Bottom + (Top–Bottom)/(1 + (IC50/X)^HillSlope). Non-linear regression was carried out in Prism (version 8). In vitro selectivity screen was carried out as described previously.

ASK1 = ASK1 (Homo sapiens, UniProt Q99683); experiment: Selectivity screen ASK1; type: biochemical; details: 1 µM inhibitor, mean
EPH-A2 = EPH-A2 (Homo sapiens, UniProt P29317); experiment: Selectivity screen EPH-A2; type: biochemical; details: 1 µM inhibitor, mean
Sequence of EPH-A2 (P29317 24-976): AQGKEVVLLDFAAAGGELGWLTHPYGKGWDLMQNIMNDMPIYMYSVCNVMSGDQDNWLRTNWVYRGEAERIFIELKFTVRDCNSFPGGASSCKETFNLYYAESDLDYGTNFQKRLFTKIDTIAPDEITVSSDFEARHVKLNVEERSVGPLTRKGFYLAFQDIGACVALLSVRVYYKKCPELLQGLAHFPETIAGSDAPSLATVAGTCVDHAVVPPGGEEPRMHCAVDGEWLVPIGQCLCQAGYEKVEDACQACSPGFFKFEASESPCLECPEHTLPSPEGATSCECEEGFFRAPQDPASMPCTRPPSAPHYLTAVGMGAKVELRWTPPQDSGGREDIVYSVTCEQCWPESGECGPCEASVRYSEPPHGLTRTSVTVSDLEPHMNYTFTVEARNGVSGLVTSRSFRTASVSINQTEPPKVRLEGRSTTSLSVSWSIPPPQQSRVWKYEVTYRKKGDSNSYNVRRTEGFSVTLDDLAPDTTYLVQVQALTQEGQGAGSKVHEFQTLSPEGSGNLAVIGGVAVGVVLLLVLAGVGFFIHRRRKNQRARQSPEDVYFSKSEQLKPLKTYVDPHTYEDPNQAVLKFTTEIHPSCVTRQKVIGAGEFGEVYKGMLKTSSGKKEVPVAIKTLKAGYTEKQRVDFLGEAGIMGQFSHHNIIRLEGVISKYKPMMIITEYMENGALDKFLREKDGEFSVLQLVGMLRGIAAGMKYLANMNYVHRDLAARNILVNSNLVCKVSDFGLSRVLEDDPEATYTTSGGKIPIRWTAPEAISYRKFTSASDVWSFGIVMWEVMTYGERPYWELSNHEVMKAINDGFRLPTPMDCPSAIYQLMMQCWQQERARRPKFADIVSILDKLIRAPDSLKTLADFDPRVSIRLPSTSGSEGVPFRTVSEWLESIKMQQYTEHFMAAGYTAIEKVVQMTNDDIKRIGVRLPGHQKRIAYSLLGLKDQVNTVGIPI
Description: as §1

ULK2 = ULK2 (Homo sapiens, UniProt Q8IYT8); experiment: Selectivity screen ULK2; type: biochemical; details: 1 µM inhibitor, mean
Sequence of ULK2 (Q8IYT8 whole entry): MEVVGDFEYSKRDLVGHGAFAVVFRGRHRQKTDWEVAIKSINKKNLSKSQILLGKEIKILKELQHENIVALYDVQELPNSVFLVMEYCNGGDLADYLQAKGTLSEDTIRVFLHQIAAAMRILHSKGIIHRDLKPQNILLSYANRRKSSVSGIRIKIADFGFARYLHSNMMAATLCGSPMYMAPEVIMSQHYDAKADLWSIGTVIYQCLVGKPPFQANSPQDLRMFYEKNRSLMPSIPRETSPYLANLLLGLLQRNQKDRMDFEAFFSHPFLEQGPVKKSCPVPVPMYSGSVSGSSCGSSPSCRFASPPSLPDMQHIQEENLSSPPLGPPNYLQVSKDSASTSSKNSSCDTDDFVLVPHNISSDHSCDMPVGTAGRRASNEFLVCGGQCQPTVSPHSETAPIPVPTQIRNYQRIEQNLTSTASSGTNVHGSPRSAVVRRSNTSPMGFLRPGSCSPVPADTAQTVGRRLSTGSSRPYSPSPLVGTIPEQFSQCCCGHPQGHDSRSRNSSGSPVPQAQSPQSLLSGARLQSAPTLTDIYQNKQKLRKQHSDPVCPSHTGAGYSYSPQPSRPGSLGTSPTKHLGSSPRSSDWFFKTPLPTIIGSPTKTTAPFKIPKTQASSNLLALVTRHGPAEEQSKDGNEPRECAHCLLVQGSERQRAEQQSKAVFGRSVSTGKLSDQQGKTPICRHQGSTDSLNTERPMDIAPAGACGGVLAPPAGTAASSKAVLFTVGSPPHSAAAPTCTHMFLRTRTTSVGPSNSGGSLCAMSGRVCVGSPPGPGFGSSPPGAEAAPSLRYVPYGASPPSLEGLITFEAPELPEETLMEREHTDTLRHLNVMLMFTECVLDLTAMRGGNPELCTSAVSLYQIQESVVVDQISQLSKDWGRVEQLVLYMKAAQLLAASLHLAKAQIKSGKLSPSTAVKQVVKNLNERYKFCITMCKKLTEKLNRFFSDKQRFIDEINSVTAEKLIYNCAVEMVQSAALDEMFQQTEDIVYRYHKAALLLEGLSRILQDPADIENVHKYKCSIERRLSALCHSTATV
Description: as §1

PKCγ = PKCγ (Homo sapiens, UniProt P05129); experiment: Selectivity screen PKCγ; type: biochemical; details: 1 µM inhibitor, mean
Description: as §1

EPH-B1 = EPH-B1 (Homo sapiens, UniProt P54762); experiment: Selectivity screen EPH-B1; type: biochemical; details: 1 µM inhibitor, mean
Description: as §1

MARK2 = MARK2 (Homo sapiens, UniProt Q7KZI7); experiment: Selectivity screen MARK2; type: biochemical; details: 1 µM inhibitor, mean
Description: as §1

BRSK1 = BRSK1 (Homo sapiens, UniProt Q8TDC3); experiment: Selectivity screen BRSK1; type: biochemical; details: 1 µM inhibitor, mean
Sequence of BRSK1 (Q8TDC3 whole entry): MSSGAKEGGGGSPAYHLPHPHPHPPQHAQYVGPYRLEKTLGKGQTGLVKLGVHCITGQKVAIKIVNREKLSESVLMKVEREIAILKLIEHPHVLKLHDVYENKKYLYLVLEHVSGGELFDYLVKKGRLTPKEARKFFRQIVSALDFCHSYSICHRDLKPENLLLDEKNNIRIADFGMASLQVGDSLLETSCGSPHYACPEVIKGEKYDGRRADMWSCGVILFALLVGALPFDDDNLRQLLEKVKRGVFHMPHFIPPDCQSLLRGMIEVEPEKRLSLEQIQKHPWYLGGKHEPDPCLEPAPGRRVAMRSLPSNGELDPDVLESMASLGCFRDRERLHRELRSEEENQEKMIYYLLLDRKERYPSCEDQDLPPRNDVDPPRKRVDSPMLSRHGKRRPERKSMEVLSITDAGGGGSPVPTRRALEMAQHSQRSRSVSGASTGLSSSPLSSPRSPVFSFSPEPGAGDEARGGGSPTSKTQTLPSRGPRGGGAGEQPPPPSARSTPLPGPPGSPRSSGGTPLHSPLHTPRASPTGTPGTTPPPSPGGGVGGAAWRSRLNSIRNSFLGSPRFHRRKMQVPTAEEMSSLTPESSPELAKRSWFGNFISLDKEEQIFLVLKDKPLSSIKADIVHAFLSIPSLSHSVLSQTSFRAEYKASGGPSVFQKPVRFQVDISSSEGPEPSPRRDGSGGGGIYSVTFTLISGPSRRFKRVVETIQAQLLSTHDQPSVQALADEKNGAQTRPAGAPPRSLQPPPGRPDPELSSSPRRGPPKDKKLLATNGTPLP

CK1δ = CK1δ (Homo sapiens, UniProt P48730); experiment: Selectivity screen CK1δ; type: biochemical; details: 1 µM inhibitor, mean
Description: as §1

[1] = tested on: IL-4 induced STAT6 phosphorylation in wild type BMDMs; experiment: Inhibitor washout, IL-4 induced STAT6 phosphorylation, wild type BMDMs; type: cell-based, mouse; details: for inhibition of IL-4 induced STAT6 phosphorylation after inhibitor washout, wild type BMDMs: washed 3 times in PBS, IL-4 30 min to 2 h after washout, 10 μM TL6-144, 100 μM PF-06651600
Description: Covalent inhibitors would be predicted to have very slow off rates and therefore inhibition should remain even if the unbound inhibitors are washed out of the cells. To test this, cells were treated with a high concentration of inhibitor for 2 h before being washed 3 times in PBS and then incubated in media without inhibitor for 0.5 to 24 h. If the inhibitor acts via a non-covalent mechanism, inhibition would not be expected to remain following washout from the cells. Ruxolitinib is a non-covalent pan-JAK inhibitor that can inhibit multiple JAK-STAT pathways in macrophages. […] To confirm this was not the case, similar experiments were done in JAK3 Cys905Ser knockin cells. […] Similar experiments were also carried out with PF-06651600. […] As the level of inhibition was lower at 2 h post washout than 30 min the experiment was repeated to look at 4 and 24 h time points for the washout step.
Figure 4 Effect of inhibitor washout on JAK3 inhibition. BMDMs were isolated from wild type and JAK3 Cys905Ser knockin mice. […] The macrophages were then either stimulated with 10 ng/ml IL-4 for 30 min or washed 3 times in PBS and then incubated in media without inhibitor for the indicated times. The cells were then stimulated with IL-4 for 30 min and STAT6 phosphorylation determined by immunoblotting using levels of ERK1/2 as a loading control.
Bone marrow derived macrophages (BMDMs) were cultured as described. Briefly, bone marrow was flushed in PBS from the femurs and tibias of mice. Cells were cultured on bacterial grade plastic for 7 days at 37 °C, 5% CO2. Cells were then detached using Versene (Gibco), re-plated on tissue culture plastic in BMDM media (in DMEM supplemented with 10% heat inactivated FBS (Labtech), 2 mM L-glutamine, 100 U/ml penicillin G, 100 μg/ml streptomycin and 0.25 μg/ml amphotericin, 5 ng/ml M-CSF) and used within 48 h. Where indicated cells were stimulated with 10 ng/ml IL-4, 10 ng/ml GM-CSF, 10 ng/ml IL-10 or 10 ng/ml IFNβ. All cytokines were from PeproTech.
(§2) Cells were lysed directly into SDS sample buffer and aliquots run on 10% polyacrylamide gels using standard methods. Proteins were transferred onto nitrocellulose membranes, and specific proteins were detected by immunoblotting. Antibodies against tyrosine phosphorylated STATs were from Cell Signaling Technology (phospho-STAT1 #9167, phospho-STAT3 #9131, phospho-STAT5 #4322 and phospho-STAT6 #9361). The total ERK1/2 antibody used as a loading control was also from cell Signaling Technology (#4695). HRP-conjugated secondary antibodies were obtained from Pierce. Bands were detected using Clarity ECL reagents from BioRad and imaged on a Licor Odyssey Fc system. Quantification was carried out using Licor Image Studio software. After correction for the ERK1/2 levels to account for loading differences, percentage inhibition was calculated relative to the IL-4 stimulated condition. IC50 values were calculated using the same methods as for the in vitro IC50 values.

HIPK2 = HIPK2 (Homo sapiens, UniProt Q9H2X6); experiment: Selectivity screen HIPK2; type: biochemical; details: 1 µM inhibitor, mean
Sequence of HIPK2 (Q9H2X6 whole entry): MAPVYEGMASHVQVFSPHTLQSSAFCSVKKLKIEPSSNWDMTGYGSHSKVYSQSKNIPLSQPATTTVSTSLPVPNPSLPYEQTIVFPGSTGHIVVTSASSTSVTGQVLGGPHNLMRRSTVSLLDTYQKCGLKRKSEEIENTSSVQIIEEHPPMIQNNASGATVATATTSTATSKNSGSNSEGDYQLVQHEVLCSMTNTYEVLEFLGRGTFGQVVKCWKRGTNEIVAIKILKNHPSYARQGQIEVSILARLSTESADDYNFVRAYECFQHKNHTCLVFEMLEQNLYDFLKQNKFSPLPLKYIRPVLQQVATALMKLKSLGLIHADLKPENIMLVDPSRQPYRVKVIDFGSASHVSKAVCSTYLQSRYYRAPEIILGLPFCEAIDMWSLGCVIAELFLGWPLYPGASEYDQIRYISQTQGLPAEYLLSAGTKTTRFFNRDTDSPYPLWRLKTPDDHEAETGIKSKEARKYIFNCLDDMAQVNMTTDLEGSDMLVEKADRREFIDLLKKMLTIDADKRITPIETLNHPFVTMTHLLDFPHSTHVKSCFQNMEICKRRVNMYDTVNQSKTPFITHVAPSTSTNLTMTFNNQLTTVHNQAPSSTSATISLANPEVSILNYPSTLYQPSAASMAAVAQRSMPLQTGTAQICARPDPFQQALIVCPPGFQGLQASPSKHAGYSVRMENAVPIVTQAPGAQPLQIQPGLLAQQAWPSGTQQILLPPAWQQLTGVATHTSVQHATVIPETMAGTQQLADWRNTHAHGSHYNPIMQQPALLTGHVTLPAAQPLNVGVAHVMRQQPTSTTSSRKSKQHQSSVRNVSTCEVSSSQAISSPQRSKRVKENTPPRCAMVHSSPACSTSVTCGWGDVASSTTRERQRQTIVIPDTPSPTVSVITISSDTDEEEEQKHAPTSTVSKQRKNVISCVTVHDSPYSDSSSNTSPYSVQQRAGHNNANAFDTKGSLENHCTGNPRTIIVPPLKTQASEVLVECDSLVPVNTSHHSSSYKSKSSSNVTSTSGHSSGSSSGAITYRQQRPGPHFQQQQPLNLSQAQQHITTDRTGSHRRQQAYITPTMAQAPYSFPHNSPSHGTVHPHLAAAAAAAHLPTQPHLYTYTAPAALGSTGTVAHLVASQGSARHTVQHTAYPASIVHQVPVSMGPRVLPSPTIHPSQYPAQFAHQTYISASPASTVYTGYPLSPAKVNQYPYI
Description: as §1

TAK1 = TAK1 (Homo sapiens, UniProt O43318); experiment: Selectivity screen TAK1; type: biochemical; details: 1 µM inhibitor, mean
Sequence of TAK1 (O43318 1-303 limits assumed): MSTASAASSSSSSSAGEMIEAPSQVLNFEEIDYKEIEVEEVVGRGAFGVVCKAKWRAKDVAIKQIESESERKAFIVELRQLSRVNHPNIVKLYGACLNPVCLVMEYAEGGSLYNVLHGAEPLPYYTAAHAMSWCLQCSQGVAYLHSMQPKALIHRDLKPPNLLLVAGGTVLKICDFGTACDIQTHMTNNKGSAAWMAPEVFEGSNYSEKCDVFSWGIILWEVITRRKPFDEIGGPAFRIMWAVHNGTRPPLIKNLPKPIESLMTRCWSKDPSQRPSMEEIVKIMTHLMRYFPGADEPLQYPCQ
Description: as §1

p38d MAPK = p38d MAPK (Homo sapiens, UniProt O15264); experiment: Selectivity screen p38d MAPK; type: biochemical; details: 1 µM inhibitor, mean
Description: as §1

[2] = tested on: IL-2 induced STAT5 phosphorylation in spleenocytes; experiment: IL-2 induced STAT5 phosphorylation in spleenocytes; type: cell-based, mouse; details: wild type mice, inhibitor 1 h, 10 ng/ml IL-2
Description: (§3) (A) Single cell suspensions were prepared from the spleens of wild type mice. […] Cells were then stimulated with 10 ng/ml IL-4 for 30 min and the levels of phosphorylated STAT6 determined by immunoblotting. (B) As (A) except cells were stimulated with 10 ng/ml IL-2 and the levels of phosphorylated STAT5 determined. (C) CD8 T cells were expanded from the lymph nodes of wild type and JAK3 Cys905Ser knockin mice. Cells were rested in the absence of IL-2 for 60 min then incubated with the indicated concentrations of PF-06651600 for a further 30 min before stimulation with 10 ng/ml of IL-2 for 30 min. The levels of phosphorylated STAT5 and total ERK1/2 were then determined.
as §2, with “Antibodies against tyrosine phosphorylated STATs were from Cell Signaling Technology (phospho-STAT1 #9167, phospho-STAT3 #9131, phospho-STAT5 #4322 and phospho-STAT6 #9361). The total ERK1/2 antibody used as a loading control was also from cell Signaling Technology (#4695). HRP-conjugated secondary antibodies were obtained from Pierce.” left out

[3] = tested on: IL-4 induced STAT6 phosphorylation in spleenocytes; experiment: IL-4 induced STAT6 phosphorylation in spleenocytes; type: cell-based, mouse; details: wild type mice, inhibitor 1 h, 10 ng/ml IL-4 30 min
Description: as §3
as §2, with “Antibodies against tyrosine phosphorylated STATs were from Cell Signaling Technology (phospho-STAT1 #9167, phospho-STAT3 #9131, phospho-STAT5 #4322 and phospho-STAT6 #9361). The total ERK1/2 antibody used as a loading control was also from cell Signaling Technology (#4695). HRP-conjugated secondary antibodies were obtained from Pierce.” left out

[4] = inhibitor 2 h, 0.5 μM Ruxolitinib

SMILES | activity remaining in the presence of the inhibitor: MEKK1 (MEKK1) | activity remaining in the presence of the inhibitor: ASK1 (ASK1) | activity remaining in the presence of the inhibitor: EPH-A2 (EPH-A2) | activity remaining in the presence of the inhibitor: ULK2 (ULK2) | activity remaining in the presence of the inhibitor: PKCγ (PKCγ) | activity remaining in the presence of the inhibitor: EPH-B1 (EPH-B1) | activity remaining in the presence of the inhibitor: MARK2 (MARK2) | activity remaining in the presence of the inhibitor: BRSK1 (BRSK1) | activity remaining in the presence of the inhibitor: CK1δ (CK1δ) | block of IL-4 induced STAT6 phosphorylation without washout, wild type BMDMs ([1]; inhibitor 2 h, no washout, 0.5 μM Ruxolitinib, 10 μM TL6-144) | inhibition of IL-4 induced STAT6 phosphorylation after inhibitor washout, wild type BMDMs [1, 4] | activity remaining in the presence of the inhibitor: HIPK2 (HIPK2) | activity remaining in the presence of the inhibitor: TAK1 (TAK1) | activity remaining in the presence of the inhibitor: p38d MAPK (p38d MAPK) | block of IL-2 induced STAT5 phosphorylation in spleenocytes [2] | block of IL-4 induced STAT6 phosphorylation in spleenocytes [3] | inhibition of IL-4 induced STAT6 phosphorylation 24 h after inhibitor washout, wild type BMDMs ([1]; 100 μM PF-06651600 for 2 h, washout, 24 h time point)
C=CC(=O)Nc1cccc(CNc2nc(Nc3ccc(N4CCN(C)CC4)cc3OC)ncc2Cl)c1 [TL6-144] | 95 | 108 | 72 | 63 | 111 | 85 | 84 | 103 | 83 | completely blocked | much lower than in control cells | 87 | 77 | 94 | – | – | –
C=CC(=O)N1C[C@H](Nc2ncnc3[nH]ccc23)CC[C@@H]1C [PF-06651600, 1-((2S,5R)-5-((7H-Pyrrolo[2,3-d]pyrimidin-4-yl)amino)-2-methylpiperidin-1-yl)prop-2-en-1-one, reference compound] | – | – | – | – | – | – | – | – | – | – | retained | – | – | – | able to block | able to block | Some inhibition was retained
C=CC(=O)Nc1cccc(CNc2nc(Nc3ccc(N4CCOCC4)cc3)ncc2Cl)c1 [TL8-52] | 103 | 93 | 87 | 92 | 109 | 75 | 37 | 86 | 110 | – | – | 97 | 39 | 93 | able to block | able to block | –
